From PubChem BioAssay (NCI) come the findings set out here.

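Method: 48-hour compound exposure of cells in 96-well plates, five concentrations, linear interpolation of endpoints. At the GI50, growth is halved. TGI: total growth inhibition.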

Test systems include SNB-19 CNS; SNB-75 CNS; U251 CNS; ACHN renal; OVCAR-4 ovarian; NCI-H226 lung; DU-145 prostate; CAKI-1 renal; MDA-MB-231 breast; SK-OV-3 ovarian.
Holding throughout (assay): NCI anticancer screen, dose series, 48 h

As for `O=C1CCC(c2ccccc2)=NN1c1nsc2ccccc12`, the TGI with SNB-19 CNS, with SNB-75 CNS, with U251 CNS, in the test with ACHN renal and in the test with OVCAR-4 ovarian was over 100 µM throughout.

Consider `O=C1CC2(CCC(O)(c3ccc4ccccc4c3)C(C(=O)c3ccc4ccccc4c3)C2)C(=O)c2ccccc2N1` (stereo not drawn), for which the TGI with SNB-19 CNS, in the test on SNB-75 CNS, in the test on NCI-H226 lung, in the test on U251 CNS, in the test on DU-145 prostate and in the test with CAKI-1 renal was over 100 µM in each case. For the same compound, the TGI in the test on MDA-MB-231 breast and in the test with SK-OV-3 ovarian was over 100 µM throughout.

As for `COc1cnc2c(c1)C(=O)c1c-2n(CCCN2CCOCC2)c(=O)c2cc(Cl)ccc12`, the GI50 with SNB-19 CNS was 0.31 µM; in the test with SNB-75 CNS, 15.1 µM; in the test on NCI-H226 lung, 0.396 µM; in the test with ACHN renal, 0.332 µM; in the test with DU-145 prostate, 0.41 µM; in the test on CAKI-1 renal, 0.342 µM. The GI50 in the test on MDA-MB-231 breast was over 100 µM; in the test with SK-OV-3 ovarian, 0.397 µM; in the test on OVCAR-4 ovarian it was over 100 µM. Also, the TGI with SNB-19 CNS was over 100 µM; in the test with SNB-75 CNS, 57.1 µM; in the test with NCI-H226 lung it was over 100 µM; with ACHN renal, over 100 µM; with DU-145 prostate, over 100 µM; in the test on CAKI-1 renal, over 100 µM. The TGI in the test on MDA-MB-231 breast, in the test on SK-OV-3 ovarian and with OVCAR-4 ovarian was over 100 µM each time.

For the compound `COc1cccc(N2C(Cl)C(=O)C2c2c[nH]c3ccccc23)c1` (stereo not drawn), the TGI in the test on SNB-19 CNS, with U251 CNS, in the test with SK-OV-3 ovarian and in the test on OVCAR-4 ovarian was over 100 µM in each case.

On to `Nc1ncc(-c2ccc3ncnc(Nc4ccc(F)c(Cl)c4)c3c2)cn1`, for which the GI50 in the test on SNB-19 CNS is 3.53 µM; in the test with SNB-75 CNS it was 0.544 µM; in the test on NCI-H226 lung, 2.07 µM; with U251 CNS it was 1.72 µM; in the test on ACHN renal, 0.387 µM; in the test on DU-145 prostate it was 0.759 µM. In addition, the GI50 with CAKI-1 renal is 0.367 µM; in the test with MDA-MB-231 breast, 1.44 µM; in the test on SK-OV-3 ovarian it was 0.634 µM; with OVCAR-4 ovarian, 1.32 µM. In addition, the TGI with SNB-19 CNS is 23.5 µM; in the test with SNB-75 CNS, 2.43 µM; in the test on NCI-H226 lung, 4.67 µM; in the test on U251 CNS it was 4.24 µM; in the test on ACHN renal it was 2.05 µM; in the test with DU-145 prostate, over 100 µM. The TGI turned out to be 4.02 µM in the test with CAKI-1 renal, 3.8 µM with MDA-MB-231 breast, 3.96 µM in the test with SK-OV-3 ovarian and 2.97 µM in the test on OVCAR-4 ovarian.

With `O=c1oc2cc(O)ccc2c(O)c1C(c1ccccc1)c1c(O)c2ccc(O)cc2oc1=O`, the TGI in the test on SNB-75 CNS, in the test on NCI-H226 lung, in the test on U251 CNS, with DU-145 prostate, in the test on CAKI-1 renal and in the test on MDA-MB-231 breast was over 100 µM in each case. In addition, the TGI in the test on SK-OV-3 ovarian and in the test on OVCAR-4 ovarian was over 100 µM in each case.
